{
  "source": "patent US11872209B2",
  "about": "“Treatment for primary biliary cholangitis” (Zydus Lifesciences Limited, priority 2016, dated 2024)",
  "test_system": "carbon tetrachloride-induced liver fibrosis",
  "assay": "Carbon tetrachloride-induced liver fibrosis in male Sprague Dawley rats",
  "assay_type": "in vivo",
  "settings": "0.4 and 4 mg/kg/day orally for 4 weeks with continued CCl4 injections",
  "procedure": "To assess the effect of Compound of formula (Ia) on the progression of established hepatic fibrosis, fibrosis was induced in rats by twice weekly carbon tetrachloride (CCl4) injections for 2 weeks via an intraperitoneal route. Compound (Ia) (0.4 and 4 mg/kg/day), pioglitazone (10 mg/kg/day), fenofibrate (100 mg/kg/day) or vehicle (Tween 80 and 0.5% sodium salt of carboxymethylcellulose at ratio of 0.5:99.5) was then orally administered for 4 weeks to animals concomitantly with continued CCl4 injections. After 4 weeks of treatment, blood samples were collected 1 h post-dose, for estimation of non-fasted serum ALT and other serum parameters. All the animals were sacrificed; liver was quickly removed, weighed and fixed in 10% formalin for histological analysis or snap frozen in liquid nitrogen for other assays. Light microscopic examination of liver tissue was performed using standard hematoxylin and eosin (H&E) staining. Hepatic fibrosis was accessed by Masson's trichrome staining method.",
  "note": "Entries after “also recorded” stand apart in the source; their conditions may differ. Where a name gives a salt, the structure may show the parent alone.",
  "data": [
    {"smiles": "CCO[C@@H](Cc1ccc(OCCn2c(C)ccc2-c2ccc(SC)cc2)cc1)C(=O)O", "note": "[Compound (Ia), saroglitazar magnesium salt]", "values": [
      {"measurement": "Effect on CCl4-induced liver fibrosis", "setting": "after 2 weeks of CCl4, listed as Compound of formula (Ia)", "value": "protected the animals from further deterioration and exhibited a dose-dependent reversal of CCl4-induced liver fibrosis; also recorded: protected the animals from further deterioration and showed dose dependent reversal of CCl4-induced liver fibrosis"},
      {"measurement": "Microscopic quantification of fibrosis (H&E and Masson's trichrome staining of liver tissues)", "setting": "FIG. 1", "value": "stopped the progression of established liver fibrosis and accelerated liver recovery"}
    ]}
  ]
}
